Series [1] relates to Math1 enhancer and minimal promoter Luciferase reporter in HEK cells. Put plainly: Math1 Luciferase reporter assay in HEK cells. In kind it is cell-based, human. The conditions noted are these: for pIC50 / maximal fold induction: Homo sapiens, HEK293; for pIC50: read-out: IC50; for maximal fold induction: read-out: Maximum (Fold DMSO). The source says:
A human embryonic kidney (HEK) cell line stably expressing a Luciferase gene controlled by an Math1 enhancer and minimal promoter was used in a high-throughput screen (HTS) of 144,000 small molecules to identify compounds that increase Math1 expression (i.e., transcription and/or translation). Such compounds can be used to increase the conversion of stem cells, progenitor cells, and support cells to or towards a hair cell. Screens to identify such compounds are described by Li et al., (U.S. Publication No. 2005/0287127) and Li et al., (U.S. application Ser. No. 11/953,797).
HEK cells stably expressing the Math1 Luciferase reporter were plated onto 384 well plates and cultured overnight in medium containing 10% fetal calf serum (FCS). Activation of the Math1 enhancer was measured by the increase in luminescence on a plate reader following addition of a luciferase detection agent. The assay was optimized for cell number, time of incubation, volume of medium, cell lysis reagent and luciferase reagent. Luminescence levels were compared in cells with the Math1-luciferase construct with and without retinoic acid (1 μM), and/or a luciferase construct with and without the Math1 enhancer and minimal promoter region.
To improve assay sensitivity, and reduce the coefficient of variation (CV), a more sensitive luciferase reagent (BriteLite luciferase reporter assay reagent, Perkin Elmer) was used, and Triton-X-100 was added to the lysis reagent to ensure complete lysis of the cells. Following these changes a CV of 4.2% was recorded. These conditions were used for all high-throughput screens. The luminescence threshold for a compound to be positive was defined as a 2-fold increase above the control (e.g., cells exposed to DMSO).
Cells were seeded on 384 well plates and allowed to attach overnight at 37° C. with 5% CO2 in the absence of growth factors. Math1 activation was measured by the increase in luminescence on a plate reader following addition of a luciferase detection reagent. Luminescence was assessed at 24, 48, and 72 hours. These conditions were used to screen 144,000 compounds contained in the small molecule libraries at Harvard University's Laboratory for Drug Discovery in Neurodegeneration (LDDN).
HTS were performed using HEK-Math1 cells seeded in 384 well plates. One compound was added per well using pin transfer. The final concentration of each compound was […]. Cell were incubated in the presence of a compound for 48 hours at 37° C. with 5% CO2. Cell lysates then were collected and bioluminescence determined. Luminescence values were compared normalized against DMSO.
About 20000 compounds were screened per week in 50 plates of 384 well with the aid of robotic systems (Beckman Biomek FX). Compounds were screened at an average final concentration of 0.7 μM (in 0.04% DMSO) with each plate containing 16 wells of 1 μM retinoic acid, as a positive control, and 16 wells of 0.04% DMSO, as a vehicle control. Percent activation of luminescence in the test compounds was determined for cells treated with the compounds against cells treated with DMSO.
Ten compounds, randomly selected from the group of 110 compounds identified in Example 2, were further evaluated, as follows. HEK cells were plated on 96 well plates at a density of 100000 cells per well. One day after plating, 0.1, 1, and 5 μM of each positive compound was added per well in a 10% fetal bovine serum (FBS) DMEM solution. Cells were then lysed 48 hours after addition of the compound and Math1 expression was analyzed using a luciferase reporter assay, as described above, and real-time PCR.
The half maximal inhibitory concentration (IC50) and median lethal dose or Lethal Dose, 50% (LD50) were determined for each of the compounds identified in Example 2 using standard laboratory techniques. IC50 is a measure of the effectiveness of a compound in inhibiting biological or biochemical function. LD50 is the amount of a compound required to kill half the members of a tested population.

Series [2] in a line: LD50 (median lethal dose) determination. In kind it is cell-based. The source says:
IC50 is a measure of the effectiveness of a compound in inhibiting biological or biochemical function. LD50 is the amount of a compound required to kill half the members of a tested population.

pIC50: −log10 of the molar value. Bounds are passed on as bounds.

Usually pIC50 stands for the IC50 on a negative log10 scale, so that one unit is a factor of ten. Turning to `c1ccc2sc(-c3cnc(N4CCOCC4)nc3)cc2c1` [CP-0059563, 4-(5-(benzo[b]thiophen-2-yl)pyrimidin-2-yl)morpholine], in series [1], the pIC50 is < 5.00 and the maximal fold induction was found to be 1.9. The “LD50” value in series [2] was >10 µM.
With `c1ccc(SCc2nc3ccccc3[nH]2)cc1` [CP-0080773, 2-(phenylthiomethyl)-1H-benzo[d]imidazole], in series [1], the pIC50 was < 5.00 and the maximal fold induction worked out at 2.2. The “LD50” value in series [2] is >10 µM.
The like results for `COc1cc(C)c2c(=O)cc(-c3ccccc3)oc2c1` [CP-0096433, 7-methoxy-5-methyl-2-phenyl-4H-chromen-4-one] were, in that order, 5.52, 2 and >10 µM.
The like results for `O=C(CSc1nc2ccccc2o1)Nc1ccccc1Cl` [CP-0029300, 2-(benzo[d]oxazol-2-ylthio)-N-(2-chlorophenyl)acetamide] were, in that order, 5.80, 2 and >10 µM.
`Cc1cccc(-c2nc3cc(C)ccc3o2)c1` [CP-0103978, 5-methyl-2-m-tolylbenzo[d]oxazole]: in series [1], the pIC50 is 6.00 and the maximal fold induction was found to be 2. The “LD50” value in series [2] was >10 µM.
For the molecule `CS(=O)(=O)n1nccc1-c1ccc(-c2ccc(F)cc2F)o1` [CP-0099289, 5-(5-(2,4-difluorophenyl)furan-2-yl)-1-(methylsulfonyl)-1H-pyrazole], in series [1], the pIC50 is < 5.00 and the maximal fold induction was determined as 1.6. Further, the “LD50” value in series [2] was >10 µM.
For `Cc1cccc(Nc2nc(N)c(C(=O)C(C)C)s2)c1` [CP-0134381, 1-(4-amino-2-(m-tolylamino)thiazol-5-yl)-2-methylpropan-1-one], in that order: 5.70, 2.2 and >10 µM.
For `O=C(NCC1CCCO1)c1sc2ccccc2c1Cl` (stereo not shown) [CP-0068577, 3-chloro-N-((tetrahydrofuran-2-yl)methyl)benzo[b]thio-phene-2-carboxamide], in series [1], the pIC50 is 6.00 and the maximal fold induction was found to be 1.6. Moreover, the “LD50” value in series [2] was >10 µM.
For `O=C(Nc1ccccc1Cl)C(=O)c1c[nH]c2ccccc12` [CP-0078448, N-(2-chlorophenyl)-2-(1H-indol-3-yl)-2-oxoacetamide], in that order: < 5.00, 1.9 and >10 µM.
Consider `COc1ccccc1-c1nc(-c2ccc(C)cc2)no1` [CP-0067246, 5-(2-methoxyphenyl)-3-p-tolyl-1,2,4-oxadiazole], for which, in series [1], the pIC50 is 5.74 and the maximal fold induction was found to be 1.5. For the same molecule, the “LD50” value in series [2] was >10 µM.
The like results for `Cc1ccc(-c2nc(-c3cccnc3)no2)c(Cl)c1` [CP-0068929, 5-(2-chloro-4-methylphenyl)-3-(pyridin-3-yl)-1,2,4-oxadiazole] were, in that order, 6.40, 2 and >10 µM.
In the case of `Cn1c(CCc2ccc(N)cc2)nc2ccccc21` [CP-0066829, 4-(2-(1-methyl-1H-benzo[d]imidazol-2-yl)ethyl)aniline], in series [1], the negative logarithm of the IC50 (pIC50) was 6.00 and the maximal fold induction worked out at 1.8. In addition, the “LD50” value in series [2] was >10 µM.
Regarding `COc1ccccc1OCc1nc2ccccc2[nH]1` [CP-0069961, 2-((2-methoxyphenoxy)methyl)-1H-benzo[d]imidazole], in series [1], the pIC50 is 5.70 and the maximal fold induction came out at 1.7. Moreover, the “LD50” value in series [2] is >10 µM.
With `CC(C)COc1ccc(C2Nc3ccccc3C(=O)N2c2ccc3ccccc3c2)cc1` (stereo not shown) [CP-0034360, 2-(4-isobutoxyphenyl)-3-(naphthalen-2-yl)-2,3-dihydroquinazolin-4(1H)-one], in series [1], the pIC50 is 6.00 and the maximal fold induction is 2. Moreover, the “LD50” value in series [2] is >10 µM.
For `Cc1cc(C(=O)Nc2ccccc2)c(C)n1Cc1cccs1` [CP-0104766, 2,5-dimethyl-N-phenyl-1-(thiophen-2-ylmethyl)-1H-pyrrole-3-carboxamide], in that order: 5.52, 3 and >10 µM.
Turning to `COc1ccc(OCC(=O)Nc2nccs2)cc1` [CP-0063182, 2-(4-methoxyphenoxy)-N-(thiazol-2-yl)acetamide], in series [1], the pIC50 was 6.70 and the maximal fold induction was found to be 1.7. Also, the “LD50” value in series [2] was >10 µM.
The like results for `CC(C)(C)c1ccc(C(=O)NCC2CCCO2)cc1` (stereo not shown) [CP-0061566, 4-tert-butyl-N-((tetrahydrofuran-2-yl)methyl)benzamide] were, in that order, 6.70, 2 and >10 µM.
For `Cc1ccc(-c2noc(CN3CCCCC3)n2)cc1` [CP-0070164, 5-(piperidin-1-ylmethyl)-3-p-tolyl-1,2,4-oxadiazole], in that order: 5.80, 1.7 and >10 µM.
For `Cc1ccc(COn2c(-c3ccccc3)nc3ccc([N+](=O)[O-])cc32)cc1` [CP-0000571, 1-(4-methylbenzyloxy)-6-nitro-2-phenyl-1H-benzo[d]imidazole], in that order: 6.52, 2 and >30 µM.
As for `CC1=C(/C=C/C(C)=C/C=C/C(C)=C/C(=O)O)C(C)(C)CCC1` [retinoic acid, reference compound], in series [1] (1 μM, compared to non-treated cells), the “increase in luciferase activity” value turned out to be 1.8 fold.
For the molecule `c1ccc(OCc2nc(-c3ccccn3)no2)cc1` [CP-0068395, 5-(phenoxymethyl)-3-(pyridin-2-yl)-1,2,4-oxadiazole], in series [1], the pIC50 was 5.52 and the maximal fold induction was found to be 1.6. Moreover, in series [2], the “LD50” value is >10 µM.
Turning to `CCN(CC)C(=O)c1cc2cc3cc(OC)ccc3nc2s1` [CP-0076627, N,N-diethyl-6-methoxythieno [2,3-b]quinoline-2-carboxamide], in series [1], the pIC50 was 5.30 and the maximal fold induction turned out to be 2.2. The “LD50” value in series [2] was >10 µM.
`Cc1cc(NC(=O)c2ccc3c(c2)OCO3)no1` [CP-0065665, N-(5-methylisoxazol-3-yl)benzo[d][1,3]dioxole-5-carboxamide]: in series [1], the pIC50 is 6.10 and the maximal fold induction was 1.7. The “LD50” value in series [2] was >10 µM.
For `Cn1nccc1C(=O)Nc1nc2ccccc2s1` [CP-0067233, N-(benzo[d]thiazol-2-yl)-1-methyl-1H-pyrazole-5-carboxamide], in that order: 5.70, 1.8 and >10 µM.
For `COc1cccc(C(=O)Nc2nc3ccc(F)cc3s2)c1` [CP-0107060, N-(6-fluorobenzo[d]thiazol-2-yl)-3-methoxybenzamide], in that order: 7.00, 2.2 and >10 µM.
For `O=C(Nc1ccc(I)cc1)c1ccco1` [CP-0072253, N-(4-iodophenyl)furan-2-carboxamide], in that order: 5.89, 2 and >10 µM.
As to `Cc1oc(C(C)(C)C)cc1-c1cc(NC(=O)c2ccccc2)[nH]n1` [CP-0104765, N-(3-(5-tert-butyl-2-methylfuran-3-yl)-1H-pyrazol-5-yl)benzamide], in series [1], the pIC50 was 6.40 and the maximal fold induction came to 2. The “LD50” value in series [2] is >10 µM.

(Values after patent publication US11160808B2, “Compounds that enhance Atoh1 expression” (Massachusetts Eye & Ear Infirmary, priority 2008, dated 2021).)
